Measurements taken from patent US10800741B2 (ANCUREALL PHARMACEUTICAL (SHANGHAI) CO., LTD., priority 2017, dated 2020).

Columns and labels:
Format in all cases: cell-based, Human
KCL-22 (BCR-ABL) = experiment: In vitro growth inhibition of KCL-22 tumor cells (MTT/CCK8); conditions: Homo sapiens, KCL-22; in vitro growth inhibition (or induction of apoptosis), cells cultured 3 to 5 days, MTT (CCK8); read-out: IC50 KCL-22 (BCR-ABL)
Text: (§1) Tumor cell lines are an effective model for studying in vitro tumor growth inhibition. In the present invention, a representative tumor cell line was selected to determine the cell growth inhibition activity of the present compound. All cell lines used were from ATCC, DSMZ, and cell banks of the Chinese Academy of Sciences. Cell culture conditions and methods were in accordance with the requirements of each cell line. Cells were subcultured in vitro for no more than 3 generations each time, and as required, single-clone purification and identification of cell lines could be carried out.
(§2) The cell culture media used were RPMI1640 (Gibco), DMEM (Gibco), MEM (Gibco), L15 (Gibco), IMDM (Gibco), McCOY'S5A, and William's (Gibco). 5-20% fetal bovine serum (Gibco), 1% double antibiotic, 2 mM glutamine, or 1 mM sodium pyruvate were added. The names, species, major gene characteristics, culture media and cell sources of the cell lines used are shown in table 1, wherein “amp” refers to gene amplification. “+++” refers to gene overexpression. The main genetic characteristics of cells were obtained from the COSMIC Cell Lines Project and related research papers, respectively.
(§3) Adherent cells were digested with 0.25% trypsin-EDTA (Gibco). Suspension culture cells were collected by centrifugation (1700 rpm, 3 minutes). The supernatant was discarded and the cells were counted. According to each cell growth cycle, different concentrations of cells were prepared (5˜10×10^4 cells per ml), and inoculated to 96-well plates (Corning), with 100 μl per well, and incubated overnight at 37° C., 5% CO2. The next day, the test compound was added to the cultured cells (2 wells in parallel). The final concentration of the solvent was less than 1/1,000. The cells were further cultured for 3 to 5 days and assayed by MTT.
(§4) The compound was stored at a concentration of 10 mM at −20° C. and diluted to 2- or 10-fold series prior to use. BGJ398 and AC220 were synthesized according to the methods of WO2006420A1 and US2007232604A1, respectively.
(§5) The adherent cells were taken out from the cell culture medium, and immediately added to a freshly prepared complete medium containing 10% CCK8 (5% FBS), 100 ul per hole. The suspended cells were directly added to a CCK8 reagent until reaching a final concentration of 10% and cultured for 1 to 4 hours.
(§6) T=optical density of drug-treated cell wells−optical density of blank control wells; T0=optical density of cell wells before drug treatment−optical density of blank control wells; C=optical density of solvent control wells−optical density of blank control wells. […] The experiments were repeated 1 to 3 times and a statistical analysis of data was conducted.

H1581 (FGFR1 amp) = experiment: In vitro growth inhibition of H1581 tumor cells (MTT/CCK8); conditions: Homo sapiens, NCI-H1581; in vitro growth inhibition (or induction of apoptosis), cells cultured 3 to 5 days, MTT (CCK8); read-out: IC50 H1581 (FGFR1 amp)
H1703 (PDGFRa amp) = experiment: In vitro growth inhibition of H1703 tumor cells (MTT/CCK8); conditions: Homo sapiens, NCI-H1703; in vitro growth inhibition (or induction of apoptosis), cells cultured 3 to 5 days, MTT (CCK8); read-out: IC50 H1703 (PDGFRa amp)
Text: as §1, §2, §3, §4, §5, §6

Karpas 299 (NPM-ALK) = experiment: In vitro growth inhibition of Karpas 299 tumor cells (MTT/CCK8); conditions: Homo sapiens, KARPAS-299; in vitro growth inhibition (or induction of apoptosis), cells cultured 3 to 5 days, MTT (CCK8); read-out: IC50 Karpas 299 (NPM-ALK)
Text: as §1, §2, §3, §4, §5, §6

Hep3B2 (FGFR3/4+++) = experiment: In vitro growth inhibition of Hep3B2 tumor cells (MTT/CCK8); conditions: Homo sapiens, Hep3B; in vitro growth inhibition (or induction of apoptosis), cells cultured 3 to 5 days, MTT (CCK8); read-out: IC50 Hep3B2 (FGFR3/4+++)
Text: as §1, §2, §3, §4, §5, §6

KATO III (FGFR2 amp) = experiment: In vitro growth inhibition of KATO III tumor cells (MTT/CCK8); conditions: Homo sapiens, KATO III; in vitro growth inhibition (or induction of apoptosis), cells cultured 3 to 5 days, MTT (CCK8); read-out: IC50 KATO III (FGFR2 amp)
Kasumi-1 (KIT N822K) = experiment: In vitro growth inhibition of Kasumi-1 tumor cells (MTT/CCK8); conditions: Homo sapiens, Kasumi 1; in vitro growth inhibition (or induction of apoptosis), cells cultured 3 to 5 days, MTT (CCK8); read-out: IC50 Kasumi-1 (KIT N822K)
Text: as §1, §2, §3, §4, §5, §6

MOLM-13 (FLT3-ITD) = experiment: In vitro growth inhibition of MOLM-13 tumor cells (MTT/CCK8); conditions: Homo sapiens, MOLM-13; in vitro growth inhibition (or induction of apoptosis), cells cultured 3 to 5 days, MTT (CCK8); read-out: IC50 MOLM-13 (FLT3-ITD)

SMILES | IC50 (KCL-22 (BCR-ABL)) | IC50 (H1581 (FGFR1 amp)) | IC50 (H1703 (PDGFRa amp)) | IC50 (Karpas 299 (NPM-ALK)) | IC50 (Hep3B2 (FGFR3/4+++)) | IC50 (KATO III (FGFR2 amp)) | IC50 (Kasumi-1 (KIT N822K)) | IC50 (MOLM-13 (FLT3-ITD))
C=CC(=O)n1nc(C(C)(C)C)cc1NC(=O)Nc1ccc(Oc2ccnc3cc(OC)c(C(N)=O)cc23)cc1Cl [Compound 28, 4-{4-[3-(2-acryloyl-5-tert-butyl-2H-pyrazol-3-yl)-ureido]-3-chloro-phenoxy}-7-methoxyquinolin-6-carboxamide] | 25.1 nM | 17.4 nM | 17.1 nM | 698 nM | 24.2 nM | 0.73 nM | 32.5 nM | 6.53 nM
COc1cc2nccc(Oc3ccc(NC(=O)Nc4cc(C(C)(C)C)nn4C4CCCC4)c(Cl)c3)c2cc1C(N)=O [Compound 30, 4-{4-[3-(5-tert-butyl-2-cyclopentyl-2H-pyrazol-3-yl)-ureido]-3-chloro-phenoxy}-7-methoxyquinolin-6-carboxamide] | 22 nM | 15.5 nM | 16.7 nM | 276 nM | 26.1 nM | 1.62 nM | 23.7 nM | 17.8 nM
COc1cc2nccc(Oc3ccc(NC(=O)Nc4cc(C(C)(C)C)nn4CCN4CCOCC4)c(Cl)c3)c2cc1C(N)=O [Compound 31, 4-(4-{3-[5-tert-butyl-2-(2-morpholin-4-yl-ethyl)-2H-pyrazol-3-yl]-ureido}-3-chloro-phenoxy)-7-methoxyquinolin-6-carboxamide] | 51.2 nM | 23.4 nM | 25 nM | 465 nM | 32.9 nM | 0.12 nM | 40.4 nM | 9.45 nM
COc1cc2nc(Cl)cc(Oc3ccc(NC(=O)Nc4cc(C(C)(C)C)nn4C)c(Cl)c3)c2cc1C(N)=O [Compound 39, 4-{4-[3-(5-tert-butyl-2-methyl-2H-pyrazol-3-yl)-ureido]-3-chloro-phenoxy}-2-chloro-7-methoxyquinolin-6-carboxamide] | > 2500 nM | > 1000 nM | > 1000 nM | > 1000 nM | > 1000 nM | > 1000 nM | > 1000 nM | > 1000 nM
COc1cc2nccc(Oc3ccc(NC(=O)Nc4cc(C5CC5)n[nH]4)c(Cl)c3)c2cc1C(N)=O [Compound 41, 4-{3-chloro-4-[3-(5-cyclopropyl-2H-pyrazol-3-yl)-ureido]-phenoxy}-7-methoxyquinolin-6-carboxamide] | 353 nM | 450 nM | 124 nM | > 1000 nM | 514 nM | 40.1 nM | 736 nM | 134 nM
COCCOc1cc2nccc(Oc3ccc(NC(=O)Nc4cc(C(C)(C)C)nn4C)c(Cl)c3)c2cc1C(N)=O [Compound 44, 4-{4-[3-(5-tert-butyl-2-methyl-2H-pyrazol-3-yl)-ureido]-3-chloro-phenoxy}-7-(2-methoxy-ethoxy)-quinolin-6-carboxamide] | 2.21 nM | 1.61 nM | 6.49 nM | 298 nM | 11.3 nM | 1.08 nM | 7.94 nM | 3.81 nM

Next, values leading:

IC50 (KCL-22 (BCR-ABL)) | IC50 (H1581 (FGFR1 amp)) | IC50 (H1703 (PDGFRa amp)) | IC50 (Karpas 299 (NPM-ALK)) | IC50 (Hep3B2 (FGFR3/4+++)) | IC50 (KATO III (FGFR2 amp)) | IC50 (Kasumi-1 (KIT N822K)) | IC50 (MOLM-13 (FLT3-ITD)) | SMILES
5.16 nM | 9.78 nM | 8.2 nM | 524 nM | 10.9 nM | 0.07 nM | 16.9 nM | 1.35 nM | COc1cc2nccc(Oc3ccc(NC(=O)Nc4cc(C(C)(C)C)nn4C)c(Cl)c3)c2cc1C(N)=O [Compound 26, 4-{4-[3-(5-tert-butyl-2-methyl-2H-pyrazol-3-yl)-ureido]-3-chloro-phenoxy}-7-methoxyquinolin-6-carboxamide]
9.23 nM | 9.03 nM | 9.2 nM | 351 nM | 11.6 nM | 0.12 nM | 8.44 nM | 3.92 nM | CCn1nc(C(C)(C)C)cc1NC(=O)Nc1ccc(Oc2ccnc3cc(OC)c(C(N)=O)cc23)cc1Cl [Compound 27, 4-{4-[3-(5-tert-butyl-2-ethyl-2H-pyrazol-3-yl)-ureido]-3-chloro-phenoxy}-7-methoxyquinolin-6-carboxamide]
29.4 nM | 26.3 nM | 18 nM | 626 nM | 29.4 nM | 1.48 nM | 66.8 nM | 11.5 nM | CCC(=O)n1nc(C(C)(C)C)cc1NC(=O)Nc1ccc(Oc2ccnc3cc(OC)c(C(N)=O)cc23)cc1Cl [Compound 29, 4-{4-[3-(5-tert-butyl-2-propanoyl-2H-pyrazol-3-yl)-ureido]-3-chloro-phenoxy}-7-methoxyquinolin-6-carboxamide]
163 nM | 35.8 nM | 73.2 nM | 736 nM | 56.6 nM | 0.18 nM | 132 nM | 17.1 nM | COc1cc2nccc(Oc3ccc(NC(=O)Nc4cc(C(C)(C)C)nn4CCO)c(Cl)c3)c2cc1C(N)=O [Compound 32, 4-(4-{3-[5-tert-butyl-2-(2-hydroxy-ethyl)-2H-pyrazol-3-yl]-ureido}-3-chloro-phenoxy)-7-methoxyquinolin-6-carboxamide]
25.7 nM | 49.8 nM | 73 nM | 632 nM | 130 nM | 0.71 nM | 46.4 nM | 28.1 nM | COc1cc2nccc(Oc3ccc(NC(=O)Nc4cc(C(C)(C)C)n[nH]4)c(C(F)(F)F)c3)c2cc1C(N)=O [Compound 33, 4-{4-[3-(5-tert-butyl-2H-pyrazol-3-yl)-ureido]-3-trifluoromethyl-phenoxy}-7-methoxyquinolin-6-carboxamide]
98.2 nM | 57.5 nM | 88.1 nM | 641 nM | 96.4 nM | 1.62 nM | 135 nM | 14.6 nM | COc1cc2nccc(Oc3ccc(NC(=O)Nc4cc(C(C)(C)C)n[nH]4)c(C)c3)c2cc1C(N)=O [Compound 34, 4-{4-[3-(5-tert-butyl-2H-pyrazol-3-yl)-ureido]-3-methyl-phenoxy}-7-methoxyquinolin-6-carboxamide]
112 nM | 127 nM | 93 nM | 721 nM | 446 nM | 2.53 nM | 106 nM | 19.6 nM | COc1cc2nccc(Oc3ccc(NC(=O)Nc4cc(C(C)C)n[nH]4)c(Cl)c3)c2cc1C(N)=O [Compound 40, 4-{3-chloro-4-[3-(5-isopropyl-2H-pyrazol-3-yl)-ureido]-phenoxy}-7-methoxyquinolin-6-carboxamide]
102 nM | 38.5 nM | 37.2 nM | 558 nM | 64.3 nM | 5.69 nM | 149 nM | 51.5 nM | CC(C)Oc1cc2nccc(Oc3ccc(NC(=O)Nc4cc(C(C)(C)C)n[nH]4)c(Cl)c3)c2cc1C(N)=O [Compound 43, 4-{4-[3-(5-tert-butyl-2H-pyrazol-3-yl)-ureido]-3-chloro-phenoxy}-7-isopropoxy-quinolin-6-carboxamide]
